Reference: ChEMBL document CHEMBL4184137, “Lysine Deacetylase Inhibitors in Parasites: Past, Present, and Future Perspectives” (J Med Chem, 2017)
Each block holds one compound with its values, some of them ahead of it.

Key:
Histone deacetylase = target: T1, Histone deacetylase (Plasmodium falciparum, UniProt Q9XYC7); experiment: Inhibition of HDAC1 in Plasmodium falciparum 3D7 nuclear extract using Ac-RGK(Ac)-AMC fluorogenic peptide as substrate preincubated for 1 hr followed by substrate addition measured after 10 min by fluorescence assay
T1 sequence (Q9XYC7 whole entry): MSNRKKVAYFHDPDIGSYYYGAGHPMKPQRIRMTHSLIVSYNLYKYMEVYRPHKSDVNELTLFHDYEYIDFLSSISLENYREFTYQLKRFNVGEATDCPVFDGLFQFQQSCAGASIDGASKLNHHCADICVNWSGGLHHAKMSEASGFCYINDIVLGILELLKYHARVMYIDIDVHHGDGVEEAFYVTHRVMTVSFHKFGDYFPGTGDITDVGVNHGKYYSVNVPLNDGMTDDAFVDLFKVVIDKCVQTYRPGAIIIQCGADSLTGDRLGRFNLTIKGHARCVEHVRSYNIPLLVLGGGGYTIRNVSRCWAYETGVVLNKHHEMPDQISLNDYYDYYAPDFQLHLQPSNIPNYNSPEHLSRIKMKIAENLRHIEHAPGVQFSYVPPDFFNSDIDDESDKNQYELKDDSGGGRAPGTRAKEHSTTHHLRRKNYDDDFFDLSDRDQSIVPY

[1] = target: T2, Histone deacetylase (Plasmodium falciparum) (UniProt Q9XYC7); experiment: Inhibition of recombinant HDAC1 in recombinant Plasmodium falciparum at 1 uM using Ac-RGK(Ac)-AMC fluorogenic peptide as substrate preincubated for 1 hr followed by substrate addition measured after 10 min by fluorescence assay
T2 sequence (whole entry): T1 sequence (Q9XYC7 whole entry)

[2] = Selectivity index, ratio of IC50 for human NFF cells to IC50 for Trypanosoma brucei brucei; assay type: toxicity; conditions: read-out: Selectivity Index
[3] = Selectivity index, ratio of IC50 for HEK293 cells to IC50 for Trypanosoma brucei brucei; assay type: toxicity; conditions: human, read-out: Selectivity Index
[4] = Selectivity index, ratio of IC50 for human NFF cells to IC50 for Plasmodium falciparum; assay type: toxicity; conditions: read-out: Ratio IC50
[5] = Selectivity index, ratio of IC50 for HEK293 cells to IC50 for Plasmodium falciparum; assay type: toxicity; conditions: human, read-out: Ratio IC50
Plasmodium falciparum [6] = experiment: Antimalarial activity against Plasmodium falciparum using Malstat reagent by parasite lactate dehydrogenase assay; assay type: functional, organism-based
Vero = experiment: Cytotoxicity against African green monkey Vero cells by neutral red assay; assay type: cell-based; conditions: Chlorocebus sabaeus
[7] = Selectivity index, ratio of IC50 for African green monkey Vero cells to IC50 for Plasmodium falciparum; assay type: toxicity; conditions: read-out: Ratio IC50
Plasmodium falciparum [8] = experiment: Antimalarial activity against asexual-stage of Plasmodium falciparum 3D7 after 24 hrs by microbeta scintillation counting-based [3H]-hypoxanthine incorporation assay; assay type: functional, organism-based
Plasmodium falciparum [9] = experiment: Gametocytocidal activity against transgenic GFP-fused Plasmodium falciparum NF54 […] gametocytes after 72 hrs by Mitotracker Red CMH2XRos staining-based confocal microscopic method; assay type: functional, organism-based; conditions: NF54, 72 h
NFF = experiment: Cytotoxicity against human NFF cells after 72 hrs by SRB assay; assay type: cell-based
[10] = Selectivity index, ratio of IC50 for human NFF cells to IC50 for asexual-stage of Plasmodium falciparum 3D7; assay type: toxicity; conditions: read-out: Ratio IC50
[11] = Selectivity index, ratio of IC50 for human NFF cells to IC50 for transgenic GFP-fused Plasmodium falciparum NF54 […] gametocyte; assay type: toxicity; conditions: read-out: Ratio IC50

SMILES: C/C=C1\NC(=O)[C@H]2CSSCC/C=C/[C@H](CC(=O)N[C@H](C(C)C)C(=O)N2)OC(=O)[C@H](C(C)C)NC1=O [ROMIDEPSIN]
IC50 (Histone deacetylase): 0.0009 µM
inhibition [1]: 48%
selectivity ratio [2]: < 1
selectivity ratio [3]: < 1
selectivity ratio [4]: < 1
selectivity ratio [5]: < 1

IC50 (Plasmodium falciparum [6]): 1.2 to 4 µM
SMILES: Cn1cc(C(=O)Cc2ccccc2)cc1/C=C/C(=O)NO
IC50 (Vero): > 20 µM
selectivity ratio [7]: 5 to 17

IC50 (Plasmodium falciparum [8]): 0.16 µM
SMILES: CC(C)(C)c1ccc(NC(=O)NOCCCCCC(=O)NO)cc1
IC50 (Plasmodium falciparum [9]): 3.45 µM
IC50 (NFF): 4.9 µM
selectivity ratio [10]: 31
selectivity ratio [11]: 2
